Results as given in US10294214B2, “Positive allosteric modulators of human melanocortin-4 receptor” (Vanderbilt University, priority 2016, dated 2019).
Entries after “also recorded” stand apart in the source; their conditions may differ. Values belong to the molecule of their own block, whether it stands above or below them.

Key:
Y receptor = assay: Ussing chamber assay, PYY responses in mouse colon mucosa; conditions: PYY 10 nM; for Effect of antagonist on PYY responses: HS014 30 nM, 300 nM BIBO3304 plus 1 μM BIIE0246 in combination; for Effect on PYY responses: Example 3 at 200 nM or 1 μM
Method: (§1) FIGS. 2A-2I contain data on the characterization of hMC4R PAMs Examples 1, 2, and 3. FIGS. 2A, 2B, and 2C show structures of Examples 1-3, and the affect of Examples 1-3 on the α-MSH dose-response curve at the hMC4R, as determined using the Lance assay. Insets show the concentration-response effect as a function of the fold shift on the α-MSH concentration response curve. […] After α-MSH responses had waned all tissues received PYY (10 nM) to verify residual Y receptor anti-secretory activity. Basal Isc values are indicated to the left of each trace from an exposed area of 0.14 cm^2. Vertical arrows show the timepoint at which α-MSH Isc responses were recorded. […] Each value is the mean±1 SEM with n values in parentheses. ** P<0.01 using one-way ANOVA with Dunnett's post-test.
(§2) GI tissue from adult (12-20 week old) male C57BL/6J mice were dissected free of overlying smooth muscle and mucosae placed between 2 halves of Ussing chambers exposing an area of 0.14 cm^2. Mucosae were bathed both sides with Krebs-Henseleit (KH) buffer of following composition (in mM: 117 NaCl, 24.8 NaHCO3, 4.7 KCl, 1.2 MgSO4, 1.2 KH2PO4, 2.5 CaCl2 and 11.1 D-glucose) aerated with 95% O2/5% CO2 (pH 7.4) and voltage-clamped at 0 mV as described in detail previously (Cox et al., 2001; Cox and Tough, 2002). MC4R activity in mouse colonic epithelium was then characterized. Mouse mucosae were pretreated with vehicle or PAM compounds, then with secretagogue, VIP (10 nM, basolateral), and once elevated ISC had reached its peak and was declining at a constant rate, α-MSH was added to the basolateral reservoir to determine responses.
(§3) ISC responses in μA are expressed as the mean±SEM per unit area (cm2). Single comparisons (using GraphPad Prism) were performed using Student's unpaired t-test while multiple comparisons utilized 1-way ANOVA with Dunnett's post test and P≤0.05 were considered statistically significant.

native L cell MC4R = native L cell MC4R (Mus musculus (Mouse), UniProt P56450); assay: Ussing chamber assay, α-MSH inhibition of VIP-elevated Isc in mouse colon mucosa; conditions: for Effect of antagonist on α-MSH inhibition of Isc potentiated by 1 μM Example 3: HS014 30 nM, 300 nM BIBO3304 plus 1 μM BIIE0246 in combination; for Effect of antagonist on α-MSH inhibition of Isc potentiated by 1 μM Example 3 / α-MSH response (inhibition of Isc) after pretreatment: α-MSH 300 nM; for Effect of compound alone on basal Isc: basolateral, Example 3 at 200 nM or 1 μM, vs vehicle
Method: as §1, §2, §3

hMC4R [1] = molecular target: T1, hMC4R (Homo sapiens (Human), UniProt P32245); assay: LANCE cAMP assay, hMC4R PAM; assay type: cell-based; conditions: for hMC4R PAM LANCE pEC50 Mean: HEK293 cells stably expressing the hMC4R, α-MSH at an EC20 dose; for Emax: read-out: % of αMSH maximal response
Method: Analysis of pharmacological properties of compounds was performed using the LANCE cAMP kit (Perkin Elmer). HEK293 cells stably expressing the hMC4R were treated with PAM compounds at doses indicated, then incubated with an Alexa Fluor 647-labeled antibody in stimulation buffer according to manufacturer's instructions for 30 min at RT. Next, α-MSH was added (at an EC20 dose or at doses indicated for concentration-response curves), and plates were incubated for 15 minutes at RT, followed by the addition of 10 μL of detection mix. Plates were then incubated for 30 minutes at RT and read on a Viewlux (Perkin Elmer) using 618 and 671 nm emission filters. IBMX was not included in the assay.

C57BL/6 mice = assay: Inhibition of fast-induced refeeding in the mouse; assay type: in vivo; conditions: single i.p. dose 5 mg/kg; overnight fasted mice; food intake after two and six hours
Method: FIG. 4 contains data from assays of inhibition of food intake in the mouse by MC4R PAM Example 3. Nine to ten week old C57BL/6 mice were fasted overnight (15 to 17 hours) and re-feeding was monitored the following day after a single i.p. dose of Example 3 (5 mg/kg) or vehicle (10% Tween 80, 5% DMSO v/v). Normalized food intake (food consumed in grams per 100 grams of body weight) per treatment group is shown in the top graphs after two hours (top left) and six hours (top right) of onset of re-feeding phase. Body weight changes for two and six hours are shown in the bottom left and right panels respectively. p values are noted on each graph and were determined by unpaired t tests. Significance was set to p values <0.05.

[2] = molecular target: human β2-adrenergic receptor (Homo sapiens (Human), UniProt P07550); assay: pGLO cAMP assay, counterscreen; assay type: cell-based; conditions: Isop EC20
Method: (§4) Drug screening for identification of hits and initial characterization of MC4R PAM compounds were performed using the pGLO assay, as described previously (Pantel J, et al., (2011) Development of a high throughput screen for allosteric modulators of melanocortin-4 receptor signaling using a real time cAMP assay. Eur J Pharmacol 660:139-147. HEK293 cells stably expressing the hMC4R or the hB2ADR with GloSensor (Promega) were plated at a density of 10,000 to 15,000 cells per well on Poly-D-Lysin coated black optical bottom 384 well plates in MEM supplemented with 2% serum. The next day, cells were loaded with the cAMP Glo reagent at a 2% concentration in CO2-independent media for 2 hours at 37° C. […]
(§5) HEK293 cells stably expressing the hMC4R or the β-adrenergic receptor with the p-Promega pGlo luciferase cAMP reporter were plated at a density of 10,000 to 15,000 cells per well on Poly-D-Lysin coated black optical bottom 384 well plates in MEM supplemented with 2% serum. The next day, cells were loaded with the p-Glo substrate at a 2% concentration in CO2-independent media for 2 hours at 37° C. cAMP concentration in cells were measured as a function of luminescence over time using a Hamamatsu FDSS 6000 plate reader. Basal luminescence were measured for 5 minutes followed by injection of 1 μM of the library compounds. […]

hMC4R [3] = molecular target: T1, hMC4R; assay: pGLO cAMP assay, PAM HTS primary screen; assay type: cell-based; conditions: 1 μM of library compound
Method: as §4, §5

T1 sequence (P32245 whole entry): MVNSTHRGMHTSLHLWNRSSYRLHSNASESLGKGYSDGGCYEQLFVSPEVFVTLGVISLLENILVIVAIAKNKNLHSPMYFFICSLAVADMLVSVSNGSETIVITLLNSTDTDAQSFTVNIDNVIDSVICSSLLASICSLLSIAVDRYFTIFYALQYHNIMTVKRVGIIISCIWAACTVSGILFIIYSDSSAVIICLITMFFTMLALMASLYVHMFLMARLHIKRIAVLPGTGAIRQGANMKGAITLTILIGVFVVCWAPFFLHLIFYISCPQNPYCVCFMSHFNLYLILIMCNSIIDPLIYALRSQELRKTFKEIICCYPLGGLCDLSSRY
Chain of native L cell MC4R (P56450 whole entry): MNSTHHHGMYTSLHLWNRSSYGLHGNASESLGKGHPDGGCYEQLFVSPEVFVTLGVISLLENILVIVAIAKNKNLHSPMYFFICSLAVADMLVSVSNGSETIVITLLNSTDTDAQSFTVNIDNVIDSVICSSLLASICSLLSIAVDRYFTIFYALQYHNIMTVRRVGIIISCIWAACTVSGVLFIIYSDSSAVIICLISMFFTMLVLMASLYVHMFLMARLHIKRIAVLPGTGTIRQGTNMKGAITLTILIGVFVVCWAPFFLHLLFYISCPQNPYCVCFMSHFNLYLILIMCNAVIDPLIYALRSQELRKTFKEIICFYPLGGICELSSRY
Chain of human β2-adrenergic receptor (P07550 whole entry): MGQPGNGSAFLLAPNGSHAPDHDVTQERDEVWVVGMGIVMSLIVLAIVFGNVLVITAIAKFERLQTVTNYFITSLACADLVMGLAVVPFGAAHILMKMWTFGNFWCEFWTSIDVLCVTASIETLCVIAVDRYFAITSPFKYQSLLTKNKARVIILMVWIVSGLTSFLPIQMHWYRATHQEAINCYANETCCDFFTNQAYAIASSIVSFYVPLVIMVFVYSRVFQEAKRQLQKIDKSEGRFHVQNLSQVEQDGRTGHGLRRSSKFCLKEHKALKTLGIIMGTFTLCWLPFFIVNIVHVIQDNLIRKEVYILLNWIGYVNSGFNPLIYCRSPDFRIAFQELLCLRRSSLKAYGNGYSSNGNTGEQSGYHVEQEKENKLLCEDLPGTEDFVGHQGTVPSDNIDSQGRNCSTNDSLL

SMILES: CC(C)(C)C1CCN(CC(=O)Nc2c(C(=O)C3CC3)[nH]c3ccccc23)CC1 [Example 1, 2-(4-(tert-butyl)piperidin-1-yl)-N-(2-(cyclopropanecarbonyl)-1H-indol-3-yl)acetamide]
Effect on PYY responses (Y receptor): unaffected
hMC4R PAM LANCE pEC50 Mean (hMC4R [1]): 6.2
EC50 (hMC4R [1]; in vitro characterisation): 398 nM
Emax (hMC4R [1]; in vitro characterisation): 83%
α-MSH response (inhibition of Isc) after pretreatment (native L cell MC4R; 10 μM pretreatment): potentiated significantly
Effect of compound alone on basal Isc (native L cell MC4R): not significantly different to vehicle controls
MC4R PAM activity on α-MSH induced, PYY mediated short circuit current inhibition (native L cell MC4R; mouse colonic epithelium): exhibited MC4R PAM activity

SMILES: O=C(CN1CCC2(CCCC2)CC1)Nc1c(C(=O)C2CC2)[nH]c2ccccc12 [Example 2, N-(2-(cyclopropanecarbonyl)-1H-indol-3-yl)-2-(8-azaspiro[4.5]decan-8-yl)acetamide]
Effect on PYY responses (Y receptor): unaffected
hMC4R PAM LANCE pEC50 Mean (hMC4R [1]): 6.3
pEC50 (hMC4R [1]; in vitro characterisation): 6.3
Emax (hMC4R [1]; in vitro characterisation): 80%
α-MSH response (inhibition of Isc) after pretreatment (native L cell MC4R; 3 μM pretreatment): potentiated significantly
Effect of compound alone on basal Isc (native L cell MC4R): not significantly different to vehicle controls
MC4R PAM activity on α-MSH induced, PYY mediated short circuit current inhibition (native L cell MC4R; mouse colonic epithelium): exhibited MC4R PAM activity

SMILES: COC(=O)c1[nH]c2ccccc2c1NC(=O)CN1CCC(C2CCCCC2)CC1 [Example 3, methyl 3-(2-(4-cyclohexylpiperidin-1-yl)acetamido)-1H-indole-2-carboxylate]
Effect on PYY responses (Y receptor): did not modulate the activity of PYY; also recorded: unaffected
Anorexigenic activity, fast-induced refeeding (C57BL/6 mice): small, but statistically significant anorexigenic activity
hMC4R PAM LANCE pEC50 Mean (hMC4R [1]): 6.7
pEC50 (hMC4R [1]; in vitro characterisation): 6.7
Emax (hMC4R [1]; in vitro characterisation): 102%
α-MSH response (inhibition of Isc) after pretreatment (native L cell MC4R; 1 μM pretreatment, vs vehicle controls): significantly increased; also recorded: significantly potentiated
Effect of compound alone on basal Isc (native L cell MC4R): no activity on its own; also recorded: not significantly different from vehicle
MC4R PAM activity on α-MSH induced, PYY mediated short circuit current inhibition (native L cell MC4R; mouse colonic epithelium): nearly tripled the activity of α-MSH
EC50 (native L cell MC4R; mouse colonic epithelium, read-out: EC50 for potentiation of α-MSH induced short circuit current inhibition): ~200 nM

SMILES: CC1COCCN1c1ccc2[nH]c(C(=O)C3CC3)c(NC(=O)CN3CCCC(C)(C)C3)c2c1 (stereo not shown) [Example 76]
hMC4R PAM LANCE pEC50 Mean (hMC4R [1]): 5.7

SMILES: CC(=O)c1[nH]c2ccccc2c1NC(=O)CN1CCC(OC2CCCCC2)CC1 [Example 77]
hMC4R PAM LANCE pEC50 Mean (hMC4R [1]): 5.8

SMILES: COC(=O)c1[nH]c2ccc(Cl)cc2c1NC(=O)C(C)N1CCC(Cc2ccccc2)CC1 (stereo not shown) [Example 78]
hMC4R PAM LANCE pEC50 Mean (hMC4R [1]): 6

SMILES: COC(=O)c1[nH]c2ccc(Br)cc2c1NC(=O)CN1CCCC(C)(C)C1 [Example 79]
hMC4R PAM LANCE pEC50 Mean (hMC4R [1]): 6.1

SMILES: COC(=O)c1[nH]c2ccc(Cl)cc2c1NC(=O)CN1CCCC(C)(C)C1 [Example 80]
hMC4R PAM LANCE pEC50 Mean (hMC4R [1]): 6

Further lines, with some results ahead:

Effect of antagonist on PYY responses (Y receptor): predictably abolished
Effect of antagonist on α-MSH inhibition of Isc potentiated by 1 μM Example 3 (native L cell MC4R): abolished
SMILES: NC(=O)NCc1ccc(CNC(=O)[C@@H](CCCN=C(N)N)NC(=O)C(c2ccccc2)c2ccccc2)cc1 [BIBO3304, reference compound]

Effect of antagonist on PYY responses (Y receptor): predictably abolished
Effect of antagonist on α-MSH inhibition of Isc potentiated by 1 μM Example 3 (native L cell MC4R): abolished
SMILES: N=C(N)NCCC[C@H](NC(=O)CC1(CC(=O)N2CCN(C3c4ccccc4NC(=O)c4ccccc43)CC2)CCCC1)C(=O)NCCn1c(=O)n(-c2ccccc2)n(-c2ccccc2)c1=O (stereo partly shown) [BIIE0246, reference compound]

Effect on hMC4R signaling (cAMP) with α-MSH EC20 (hMC4R [3]): enhanced hMC4R signaling
SMILES: COc1cc(-c2nc(NCc3ccco3)c3ccccc3n2)cc(OC)c1OC [VUO127431, N-(furan-2-ylmethyl)-2-(3,4,5-trimethoxyphenyl)quinazolin-4-amine]
Effect on β2-adrenergic-receptor signaling (cAMP) [2]: no significant effect on β2-adrenergic-receptor signaling
